# Test results taken from ChEMBL document CHEMBL4680348, “1,2,4-Thiadiazole acyclic nucleoside phosphonates as inhibitors of cysteine dependent enzymes cathepsin K and GSK-3β” (Bioorg Med Chem, 2021).
# Key:
# HepG2 [1] = test: Cytotoxicity against human HepG2 cells assessed as cell viability at 10 uM incubated for 72 hrs by CellTiter-Glo luminescence based assay; type: functional; settings: read-out: Activity
# CCRF-CEM [2] = test: Cytotoxicity against human CCRF-CEM cells assessed as cell viability at 10 uM incubated for 72 hrs by CellTiter-Glo luminescence based assay; type: functional; settings: read-out: Activity
# SH-SY5Y [3] = test: Cytotoxicity against human SH-SY5Y cells assessed as cell viability at 10 uM incubated for 72 hrs by CellTiter-Glo luminescence based assay; type: functional; settings: read-out: Activity
# [4] = Cytotoxicity against human NHDF cells assessed as cell viability at 100 uM incubated for 72 hrs by CellTiter-Glo luminescence based assay; settings: read-out: Activity
# [5] = Cytotoxicity against human NHDF cells assessed as cell viability at 10 uM incubated for 72 hrs by CellTiter-Glo luminescence based assay; settings: read-out: Activity
# [6] = biological target: T1, Cathepsin K (Homo sapiens) (UniProt P43235); test: Inhibition of recombinant human Cathepsin K expressed in Pichia pastoris X-33 assessed as residual activity at 10 uM using Z-Gly-Pro-Arg-AMC as substrate preincubated for 10 mins followed by substrate addition measured after 30 mins by fluorescence based microplate reader assay; settings: time 40.0 min
# T1 sequence (whole entry): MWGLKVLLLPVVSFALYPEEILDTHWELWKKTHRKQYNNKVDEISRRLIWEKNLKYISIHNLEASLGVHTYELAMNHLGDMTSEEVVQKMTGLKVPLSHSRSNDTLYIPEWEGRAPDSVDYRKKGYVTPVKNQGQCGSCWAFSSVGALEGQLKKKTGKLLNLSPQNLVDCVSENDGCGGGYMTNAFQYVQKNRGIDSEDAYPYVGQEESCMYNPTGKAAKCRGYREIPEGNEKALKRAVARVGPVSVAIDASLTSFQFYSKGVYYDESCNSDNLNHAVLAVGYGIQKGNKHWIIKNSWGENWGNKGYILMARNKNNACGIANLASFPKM
# HeLa S3 [7] = test: Cytotoxicity against human HeLa S3 cells assessed as cell viability at 100 uM incubated for 72 hrs by CellTiter-Glo luminescence based assay; type: functional; settings: read-out: Activity
# CCRF-CEM [8] = test: Cytotoxicity against human CCRF-CEM cells assessed as cell viability at 100 uM incubated for 72 hrs by CellTiter-Glo luminescence based assay; type: functional; settings: read-out: Activity
# HepG2 [9] = test: Cytotoxicity against human HepG2 cells assessed as cell viability at 100 uM incubated for 72 hrs by CellTiter-Glo luminescence based assay; type: functional; settings: read-out: Activity
# HL-60 [10] = test: Cytotoxicity against human HL-60 cells assessed as cell viability at 100 uM incubated for 72 hrs by CellTiter-Glo luminescence based assay; type: functional; settings: read-out: Activity
# HL-60 [11] = test: Cytotoxicity against human HL-60 cells assessed as cell viability at 10 uM incubated for 72 hrs by CellTiter-Glo luminescence based assay; type: functional; settings: read-out: Activity
# HeLa S3 [12] = test: Cytotoxicity against human HeLa S3 cells assessed as cell viability at 10 uM incubated for 72 hrs by CellTiter-Glo luminescence based assay; type: functional; settings: read-out: Activity
# [13] = biological target: Glycogen synthase kinase-3 beta (Homo sapiens, UniProt P49841); test: Inhibition of human recombinant GSK3beta using GSK3 peptide as substrate preincubated for 15 mins followed by ATP addition and measured after 90 mins by ADP-Glo kinase assay
# SH-SY5Y [14] = test: Cytotoxicity against human SH-SY5Y cells assessed as cell viability at 100 uM incubated for 72 hrs by CellTiter-Glo luminescence based assay; type: functional; settings: read-out: Activity
# Glycogen synthase kinase-3 beta, sequence (P49841 whole entry): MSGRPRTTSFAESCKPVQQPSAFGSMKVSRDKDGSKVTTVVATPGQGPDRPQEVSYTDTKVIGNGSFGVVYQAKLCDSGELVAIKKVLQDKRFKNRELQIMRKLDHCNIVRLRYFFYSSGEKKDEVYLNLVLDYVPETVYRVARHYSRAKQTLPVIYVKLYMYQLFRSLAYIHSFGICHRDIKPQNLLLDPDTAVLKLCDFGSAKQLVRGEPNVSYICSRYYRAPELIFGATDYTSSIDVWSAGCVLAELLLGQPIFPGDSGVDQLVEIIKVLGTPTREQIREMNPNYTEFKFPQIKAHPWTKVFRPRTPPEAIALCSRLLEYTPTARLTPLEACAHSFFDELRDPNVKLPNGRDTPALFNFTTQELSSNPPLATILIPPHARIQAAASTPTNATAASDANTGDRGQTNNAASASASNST
SMILES,Activity [6] [%],IC50 [13] [µM],viability at 10 µM (HepG2 [1]) [%],viability at 10 µM (CCRF-CEM [2]) [%],viability at 10 µM (SH-SY5Y [3]) [%],"viability at 72 h, 100 µM [4] [%]","viability at 72 h, 10 µM [5] [%]",viability at 100 µM (HeLa S3 [7]) [%],viability at 100 µM (CCRF-CEM [8]) [%],viability at 100 µM (HepG2 [9]) [%],viability at 100 µM (HL-60 [10]) [%],viability at 10 µM (HL-60 [11]) [%],viability at 10 µM (HeLa S3 [12]) [%],viability at 100 µM (SH-SY5Y [14]) [%]
O=C(Nc1nc(=O)[nH]s1)c1ccccc1,85,> 10,99,102,103,100,104,101,96,77,110,101,99,90
Cc1cnc(-c2cnc(NCCNc3ccc(C#N)cn3)nc2-c2ccc(Cl)cc2Cl)[nH]1 [LADUVIGLUSIB],–,–,86,28,77,–,53,–,–,–,–,119,67,–
CCOC(=O)Nc1nc(=O)n(CCOCP(=O)(OC(C)C)OC(C)C)s1,86.8,> 10,104,92,105,98,101,101,98,100,111,102,100,104
CC(C)OP(=O)(COCCOc1nsc(N)n1)OC(C)C,78.3,> 10,100,114,98,114,104,98,103,99,108,103,97,55
CC(C)OP(=O)(COCCOc1nsc(/N=C/N(C)C)n1)OC(C)C,52.9,> 10,99,106,101,99,101,89,93,90,98,97,101,87
O=c1sn(-c2cccc3ccccc23)c(=O)n1Cc1ccccc1 [TIDEGLUSIB],–,–,92,30,80,–,57,–,–,–,–,34,69,–
CCOC(=O)Nc1nc(=O)n(C[C@@H](CO)OCP(=O)(O)O)s1,97.5,> 10,99,94,100,99,101,94,114,89,99,95,97,99

# Second part, led by results:
Activity [6] [%],IC50 [13] [µM],SMILES,viability at 10 µM (HepG2 [1]) [%],viability at 10 µM (CCRF-CEM [2]) [%],viability at 10 µM (SH-SY5Y [3]) [%],"viability at 72 h, 100 µM [4] [%]","viability at 72 h, 10 µM [5] [%]",viability at 100 µM (HeLa S3 [7]) [%],viability at 100 µM (CCRF-CEM [8]) [%],viability at 100 µM (HepG2 [9]) [%],viability at 100 µM (HL-60 [10]) [%],viability at 10 µM (HL-60 [11]) [%],viability at 10 µM (HeLa S3 [12]) [%],viability at 100 µM (SH-SY5Y [14]) [%]
92.9,> 10,CC(C)OP(=O)(CO[C@H](CO)Cn1sc(NC(=O)c2ccccc2)nc1=O)OC(C)C,109,86,100,104,103,105,97,99,118,106,97,97
67,> 10,O=C(Nc1nc(=O)n(CCOCP(=O)(O)O)s1)OCC1c2ccccc2-c2ccccc21,105,85,102,84,93,102,90,103,106,102,97,99
85.5,> 10,O=C(Nc1nc(=O)n(C[C@@H](CO)OCP(=O)(O)O)s1)OCC1c2ccccc2-c2ccccc21,106,88,99,95,98,99,119,88,100,93,98,93
90.3,> 10,O=C(Nc1nc(=O)n(CCOCP(=O)(O)O)s1)c1ccccc1,100,98,104,102,103,101,100,100,113,102,101,105
80.6,> 10,CC(C)OP(=O)(COCCn1sc(NC(=O)c2ccccc2)nc1=O)OC(C)C,103,100,104,101,103,100,94,101,115,104,101,101
76.6,> 10,CC(=O)Nc1nc(=O)[nH]s1,103,104,102,105,99,102,102,88,108,105,97,99
92.3,> 10,O=C(Nc1nc(=O)n(C[C@@H](CO)OCP(=O)(O)O)s1)c1ccccc1,101,72,101,98,105,101,61,100,106,103,97,103
90,> 10,Nc1nc(OCCOCP(=O)(O)O)ns1,97,113,101,96,105,102,112,93,100,103,101,99
67,> 10,CN(C)/C=N/c1nc(=O)[nH]s1,97,122,100,107,105,112,84,85,105,102,97,75
83.4,> 10,CCOC(=O)Nc1nc(=O)n(C[C@@H](CO)OCP(=O)(OC(C)C)OC(C)C)s1,101,67,104,100,104,87,45,93,101,97,90,104
